In article PMC7190706, “A Self-Assembling Lipidic Peptide and Selective Partial V2 Receptor Agonist Inhibits Urine Production” (Scientific Reports, 2020):

What was measured:
[1] = Spontaneously voided urine volume and osmolality after intravenous injection in healthy rats; format: in vivo; settings: METx (5: 1) nanoparticle formulation, rat
Protocol: Male Sprague Dawley rats (220–250 g) were housed five per cage in an air conditioned unit maintained at 20–22 °C and 50–60% humidity, with lighting controlled on a twelve-hour cycle. The lights were switched on at 07:00 and off at 19:00. Animals were allowed free access to standard rodent chow and water. Before experimentation, animals were habituated for 7 days within the unit. Prior to testing animals were acclimatised to the procedure room for 1 hour. Animals were also acclimatised to the metabolic cages for 20 minutes per day for 5 days before the day of experiment. Animals were randomly assigned into one of four groups; untreated, and animals receiving an intravenous injection of 10, 20 or 40 mg kg^−1 of METx as a GCPQ, METx (5: 1) nanoparticle formulation (n = 3) in a dose volume of 0.9 mL. The formulations were freshly prepared on the morning of the experiment as described above and the pH of the formulation adjusted to pH = 7 using sodium hydroxide (1 M). After receiving their METx formulations, animals were placed within individual metabolic cages (Techniplast, Italy) with access to water. Spontaneously voided urine was collected for 4 hours. Urine osmolality was determined by freezing point depression using a Type 5r osmometer (Loser, Germany).

V2 receptor = biological target: T1, V2 receptor (Canis lupus familiaris, UniProt O77808); assay: V2 receptor agonism, cAMP accumulation in MDCK cells (cAMP EIA); format: cell-based, dog
T1 construct: MDCK cells expressing the V2 receptor were cultured; endogenous in cells; host or cells: MDCK cells
T1 sequence (O77808 whole entry): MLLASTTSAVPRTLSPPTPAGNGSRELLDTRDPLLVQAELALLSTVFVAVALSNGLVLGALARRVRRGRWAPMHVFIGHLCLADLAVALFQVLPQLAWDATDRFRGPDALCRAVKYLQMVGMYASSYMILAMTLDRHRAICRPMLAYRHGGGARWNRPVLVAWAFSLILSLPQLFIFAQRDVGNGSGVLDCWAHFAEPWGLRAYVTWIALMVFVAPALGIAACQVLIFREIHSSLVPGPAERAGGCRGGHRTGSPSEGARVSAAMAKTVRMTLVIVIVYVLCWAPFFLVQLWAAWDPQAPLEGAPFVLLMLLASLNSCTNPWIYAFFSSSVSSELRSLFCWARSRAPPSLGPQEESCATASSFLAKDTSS
Protocol: We thus used the V2 receptor from MDCK cells, V1a receptors from A7r5 cells and OT receptors from rat uterine strips for our receptor activity assays.
MDCK cells expressing the V2 receptor were cultured in Eagle’s Essential Minimum Medium (EMEM) supplemented with foetal bovine serum (FBS, 10% v/v), L-Glutamine (1% v/v) and non-essential amino acids (NEAA 1% v/v). […] The cell culture medium was changed every 2 days. Cells were sub-cultured every 7 days or upon reaching confluence using trypsin/ ethylene diamine tetraacetic acid (EDTA) (0.25%w/v trypsin/ 0.01%w/v EDTA in phosphate buffered saline, 3 mL) solution to dissociate the cells and the cells reseeded at one third of their original density.
The cell culture media was changed daily. On the day of the experiment, the cells were washed with Dulbecco’s phosphate-buffered saline (DPBS) without calcium and magnesium and incubated for 1 hour in cell culture medium with isobutyl methylxanthine (IBMX, 0.5 mM). IBMX is a phosphodiesterase inhibitor that prevents the breakdown of cAMP within the cells; allowing for total quantification of the analyte cAMP. […]
for total quantification of the analyte cAMP. […]
was quantified from the cell lysate (0.1 mL) using a competition based EIA as per the […]
acid (0.1 M, 0.1 mL) and the plates read at 450 nm using an ELx808 microplate reader […]
concentration of cAMP per well was determined from equation 1. […]

[2] = Plasma stability in 30% rat plasma, HPLC; format: in vitro ADME; settings: 37 °C
[3] = tested on: spontaneous uterine contractions; assay: Spontaneous contractions of isolated uterine strips (organ bath); parameters: species or system rat; settings: METx 41 nM
Protocol: Female Wistar rats (203–225 g) were killed with CO2 on the day of the experiments. The uterus was excised and dissected into longitudinal strips (0.5 ×1.3–1.4 cm) from the anti-mesometrial side of the mid-portion of horns which contained implantation sites.
The uterine strips were suspended in an organ bath that contained physiological salt solution (PSS, 25 ml: 116 mM NaCl, 4.6 mM KCl, 1.16 mM NaH2PO4.H2O, 1.16 mM MgSO4.7H2O, 21.9 mM NaHCO3, 1.8 mM CaCl2.2H2O, 11.6 mM dextrose, 0.03 mM CaNa2EDTA, pH = […]). The water-jacketed bath was maintained at 36 °C and aerated with a mixture of 95% O2 and 5% CO2. Only one strip from each animal was used. The uterine strip was tied at the bottom end to a fixed metal hook and at the top end to a force displacement transducer (Harvard Instruments, Kent, UK) using a cotton thread. The force displacement transducer was coupled to an amplifier driving a direct writing oscillograph (Universal Oscillograph, Harvard, Kent, UK). A cumulative dose procedure was used and isotonic contractions recorded.
To quantify the effect of METx on spontaneous uterine contractions the myometrial strips from the same uterus as above, but from the opposite horn, were equilibrated for 60 min within the organ bath and then a single dose of DMF applied followed by doses of METx as shown in Table 1 in the Supplementary Information. […]

OT receptor = biological target: T2, OT receptor (Rattus norvegicus, UniProt P70536); assay: OT induced contractions of isolated uterine strips (organ bath); settings: for 1/Rmax of double reciprocal plot (1/R vs 1/[OT]): Rmax = maximum contractile response in cm
T2 construct: OT receptors from rat uterine strips for our receptor activity assays; from tissue; host or cells: uterine strips of female Wistar rats
T2 sequence (P70536 1-388): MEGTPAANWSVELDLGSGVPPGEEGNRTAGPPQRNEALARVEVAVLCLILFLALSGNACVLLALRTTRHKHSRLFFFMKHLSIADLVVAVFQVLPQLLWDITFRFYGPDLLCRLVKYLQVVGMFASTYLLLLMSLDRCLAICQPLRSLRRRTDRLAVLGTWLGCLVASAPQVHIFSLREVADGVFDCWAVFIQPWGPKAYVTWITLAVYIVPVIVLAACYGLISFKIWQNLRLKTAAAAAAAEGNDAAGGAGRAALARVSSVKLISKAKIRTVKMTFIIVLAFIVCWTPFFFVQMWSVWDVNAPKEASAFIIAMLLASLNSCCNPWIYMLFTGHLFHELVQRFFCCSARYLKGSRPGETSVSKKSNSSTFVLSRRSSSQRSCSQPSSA
Excerpt: The uterus was excised and dissected into longitudinal strips (0.5 ×1.3–1.4 cm) from the anti-mesometrial side of the mid-portion of horns which contained implantation sites.
Only one strip from each animal was used. The uterine strip was tied at the bottom end to a fixed metal hook and at the top end to a force displacement transducer (Harvard Instruments, Kent, UK) using a cotton thread. The force displacement transducer was coupled to an amplifier driving a direct writing oscillograph (Universal Oscillograph, Harvard, Kent, UK). A cumulative dose procedure was used and isotonic contractions recorded.
DMF was added as DMF had been used to solubilise METx. […] The mean peak amplitude (MPA) was calculated from Eq. 1.1 MPA=ΣPH/n where PH = peak heights obtained within the 10 minute period immediately after addition of METx, OT or dimethylformamide and n = number of peaks within the same 10 minute period. The frequency of isotonic contractions was also evaluated during the 10 minute period immediately after the addition of METx, OT or dimethylformamide.
The organ bath was not washed out until a maximal response was reached. The MPA was calculated as shown in Equation 1, except that the recordings were done after the addition of each dose of OT and the MPA was calculated over a 5 minute period. To quantify the effect of METx on OT induced contractions, METx (final bath concentration = 0.1, 0.3 or 0.6 µM) was added to the organ bath prior to the addition of OT (Table 2 – Supplementary Information). […] Results were plotted as a percentage of the maximum contraction obtained with KCl against concentration. A double reciprocal plot was used to assess the nature of the receptor antagonism observed.
(1 picture or pasted object on this page, not shown here)

MDCK cell line = settings: read-out: EC50 functional activity (fluid secretion); cited from earlier work
human V1a receptor = tested on: human V1a receptor; parameters: method as in PMID 22375852; settings: cited from earlier work
V1a receptor = biological target: T3, V1a receptor (Rattus norvegicus, UniProt P30560); assay: V1a receptor agonism, IP-1 ELISA in A7r5 cells; format: cell-based
T3 construct: V1a receptors from A7r5 cells; endogenous in cells; host or cells: A7r5 rat smooth muscle cells
T3 sequence (P30560 whole entry): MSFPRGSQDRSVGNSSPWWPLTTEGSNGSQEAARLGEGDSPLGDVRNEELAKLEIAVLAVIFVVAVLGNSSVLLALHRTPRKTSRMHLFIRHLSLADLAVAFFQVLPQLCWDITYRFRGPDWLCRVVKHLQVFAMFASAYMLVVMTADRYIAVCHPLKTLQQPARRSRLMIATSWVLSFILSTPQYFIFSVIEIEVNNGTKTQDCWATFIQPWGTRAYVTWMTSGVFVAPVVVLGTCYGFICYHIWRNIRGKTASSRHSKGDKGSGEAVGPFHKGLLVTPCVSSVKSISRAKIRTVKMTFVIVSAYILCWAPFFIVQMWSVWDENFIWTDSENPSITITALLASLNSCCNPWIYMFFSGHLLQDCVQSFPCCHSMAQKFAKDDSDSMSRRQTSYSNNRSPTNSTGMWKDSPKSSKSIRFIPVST
Excerpt: microplate reader. […] The
hours. […] The cells were
manufacturer’s instructions.

In the case of CCCCCCCCCCCCCCCC(=O)NCCCC[C@H](NC(=O)CNC(=O)[C@H](CC(C)C)NC(=O)[C@@H]1CCCN1C(=O)[C@@H]1CSSC[C@H](N)C(=O)N[C@@H](Cc2ccc(O)cc2)C(=O)N[C@@H]([C@@H](C)CC)C(=O)N[C@@H](CCC(N)=O)C(=O)N[C@@H](CC(N)=O)C(=O)N1)C(=O)O [METx], the “osmolality of the urine” value ([1]; 20 mg kg^−1 intravenous as GCPQ) is reported as “increased significantly”, the urine production ([1]; 40 mg kg^−1 intravenous as GCPQ, 4 hour observation period) is reported as “no urine at all” and the “spontaneously voided urine volume, dose dependence” value ([1]; 10, 20 or 40 mg kg^−1 intravenous as GCPQ, 4 hours) is reported as “dose correlated reduction in urine production”. For the same molecule, the “concentration at which the maximal cAMP response was seen” value (V2 receptor) was 10 nM, the order of stability ([2]; 30% rat plasma) was “METx, Polymer (1: 5)> METx, Polymer (1: 7)> METx> METx, Polymer (1: 4)” and the “degradation over the 4 hour incubation” value ([2]; 30% rat plasma, 4 hour) was “completely degraded”. For the same molecule, the “time to complete degradation” value ([2]; 30% v/v rat plasma) was at most 60 min, the “effect on spontaneous uterine contractions” value [3] was “no effect” and the “OT antagonist concentration relative to EC50 at the V2 receptor” value (OT receptor; 300 nM versus V2 EC50) was 100 fold. For the same molecule, the “effect on OT induced contractions” value (OT receptor; 100 nm of inhibitor) was “not effective in reducing OT induced contractions”, the “shift of the OT dose response curve to the right” value (OT receptor; METx 300 nM and 600 nM, amplitude of OT induced contractions, p < 0.05) was “two orders of magnitude” and the “nature of antagonism at the OT receptor” value (OT receptor; from double reciprocal plots) was “non-competitive antagonist”. The “1/Rmax of double reciprocal plot (1/R vs 1/[OT])” value (shortened to “1/Rmax … (1/R vs 1/[OT])”) (OT receptor; inhibitor 100 nM) was 0.48, the “1/Rmax … (1/R vs 1/[OT])” value (OT receptor; inhibitor 300 nM) was 0.97 and the “1/Rmax … (1/R vs 1/[OT])” value (OT receptor; inhibitor 600 nM) was 1.33. The “concentration at which antagonism at the OT receptor starts” value (OT receptor; uterine strips) was 300 nM.

For desmopressin, the EC50 (MDCK cell line) is listed as 0.7 nM, the “affinity for the human V1a receptor” value (human V1a receptor) is listed as “does not show any affinity” and the “agonism at the V1a receptor” value (V1a receptor) is listed as “not an agonist at the V1a receptor”.

In the case of N=C(N)NCCC[C@H](NC(=O)[C@@H]1CCCN1C(=O)[C@@H]1CSSC[C@H](N)C(=O)N[C@@H](Cc2ccc(O)cc2)C(=O)N[C@@H](Cc2ccccc2)C(=O)N[C@@H](CCC(N)=O)C(=O)N[C@@H](CC(N)=O)C(=O)N1)C(=O)NCC(N)=O [AVP, arginine vasopressin, reference compound], the EC50 (MDCK cell line) is given as 0.36 nM and the “concentration at which the maximal cAMP response was seen” value (V2 receptor) is given as 100 nM.

For CC[C@H](C)[C@@H]1NC(=O)[C@H](Cc2ccc(O)cc2)NC(=O)[C@@H](N)CSSC[C@@H](C(=O)N2CCC[C@H]2C(=O)N[C@@H](CC(C)C)C(=O)NCC(N)=O)NC(=O)[C@H](CC(N)=O)NC(=O)[C@H](CCC(N)=O)NC1=O [OT, oxytocin, reference compound], the EC50 (OT receptor) was 0.081 nM.
